This is an account of results in US11505553B2, “2-(Het)aryl-substituted fused heterocycle derivatives as pesticides” (Bayer Aktiengesellschaft, priority 2017, dated 2022).

Molecules are shown by their SMILES.

Common to all, as to type: in vivo
In assay [1] the test system is Ctenocephalides felis. The experiment in a line: Ctenocephalides felis in vitro contact test with adult cat fleas. The settings on record: application rate 5 μg/cm^2 (=500 g/ha), after 48 h, adult cat fleas dead or moribund, read-out: efficacy. How it is done:
For the coating of the test tubes, 9 mg of active ingredient are first dissolved in 1 ml of acetone p.a. and then diluted to the desired concentration with acetone p.a. 250 μl of the solution are distributed homogeneously on the inner walls and the base of a 25 ml glass tube by turning and rocking on an orbital shaker (rocking rotation at 30 rpm for 2 h). With 900 ppm of active ingredient solution and internal surface area 44.7 cm^2, given homogeneous distribution, an area-based dose of 5 μg/cm^2 is achieved. After the solvent has evaporated off, the tubes are populated with 5-10 adult cat fleas (Ctenocephalides felis), sealed with a perforated plastic lid and incubated in a horizontal position at room temperature and ambient humidity. After 48 h, efficacy is determined. To this end, the tubes are stood upright and the fleas are knocked to the base of the tube. Fleas which remain motionless at the base or move in an uncoordinated manner are considered to be dead or moribund. […] 100% efficacy means that all the fleas were dead or moribund. 0% efficacy means that no fleas were harmed.

Assay [2] relates to Ctenocephalides felis. The experiment in a line: Ctenocephalides felis oral test. The settings on record: 48 h, application rate 100 ppm in citrated cattle blood, after 2 days, read-out: efficacy (kill). How it is done: Solvent: dimethyl sulfoxide To produce a suitable active ingredient formulation, 10 mg of active ingredient are mixed with 0.5 ml of dimethyl sulfoxide. Dilution with citrated cattle blood gives the desired concentration. About 20 unfed adult cat fleas (Ctenocephalides felis) are placed into a chamber which is closed at the top and bottom with gauze. A metal cylinder whose bottom end is closed with parafilm is placed onto the chamber. The cylinder contains the blood/active ingredient formulation, which can be imbibed by the fleas through the parafilm membrane. After 2 days, the kill in % is determined. 100% means that all of the fleas have been killed; 0% means that none of the fleas have been killed.

In the next assay the test system is Lucilia cuprina. The experiment in a line: Lucilia cuprina test. The settings on record: 48 h, application rate 100 ppm, L1 larvae, after 2 days, read-out: efficacy (kill). How it is done: Solvent: dimethyl sulfoxide To produce a suitable active ingredient formulation, 10 mg of active ingredient are mixed with 0.5 ml of dimethyl sulfoxide, and the concentrate is diluted with water to the desired concentration. About 20 L1 larvae of the Australian sheep blowfly (Lucilia cuprina) are transferred into a test vessel containing minced horsemeat and the active ingredient formulation of the desired concentration. After 2 days, the kill in % is determined. 100% means that all the larvae have been killed; 0% means that no larvae have been killed.

The subject of a further assay is Meloidogyne incognita. The experiment in a line: Meloidogyne incognita test. The settings on record: 336 h, application rate 20 ppm, formation of galls on lettuce after 14 days, read-out: nematicidal efficacy. How it is done:
Solvent: 125.0 parts by weight of acetone To produce a suitable active ingredient formulation, 1 part by weight of active ingredient is mixed with the stated amount of solvent and the concentrate is diluted to the desired concentration with water. Vessels are filled with sand, active ingredient solution, an egg/larvae suspension of the southern root-knot nematode (Meloidogyne incognita) and lettuce seeds. The lettuce seeds germinate and the plants develop. The galls develop on the roots. After 14 days, the nematicidal efficacy in % is determined by the formation of galls. 100% means that no galls were found; 0% means that the number of galls on the treated plants corresponds to the untreated control.

The subject of assay [3] is Myzus persicae. The experiment in a line: Myzus persicae oral test. To be noted: 120 h, after 5 days, read-out: efficacy; for pest or weed control at 0.8 ppm: application rate 0.8 ppm; for pest or weed control at 4 ppm: application rate 4 ppm. How it is done:
Solvent: 100 parts by weight of acetone To produce a suitable active ingredient formulation, 1 part by weight of active ingredient is dissolved with the stated parts by weight of solvent and made up to the desired concentration with water. 50 μl of the active ingredient preparation are transferred into microtitre plates and made up to a final volume of 200 μl with 150 μl of IPL41 insect medium (33%+15% sugar). Subsequently, the plates are sealed with parafilm, which a mixed population of green peach aphids (Myzus persicae) within a second microtitre plate is able to puncture and imbibe the solution. After 5 days, the efficacy in % is determined. 100% means that all the aphids have been killed; 0% means that no aphids have been killed.

The subject of assay [4] is Myzus persicae. The experiment in a line: Myzus persicae spray test. The settings on record: foliar, 120 h, Chinese cabbage leaf discs, after 5 days, read-out: efficacy; for pest or weed control at 20 g/ha: application rate 20 g/ha; for pest or weed control at 100 g/ha: application rate 100 g/ha. How it is done: (§1) Solvent: 78 parts by weight of acetone • • 1.5 parts by weight of dimethylformamide Emulsifier: alkylaryl polyglycol ether To produce a suitable active ingredient formulation, 1 part by weight of active ingredient is dissolved with the specified parts by weight of solvent and made up to the desired concentration with water containing an emulsifier concentration of 1000 ppm. To produce further test concentrations, the formulation is diluted with emulsifier-containing water. Discs of Chinese cabbage leaves (Brassica pekinensis) infested by all stages of the green peach aphid (Myzus persicae) are sprayed with an active ingredient formulation of the desired concentration. After 5 days, the efficacy in % is determined. 100% means that all the aphids have been killed; 0% means that no aphids have been killed.

Assay [5] has as its system Phaedon cochleariae. The experiment in a line: Phaedon cochleariae spray test. The settings on record: 168 h, application rate 100 g/ha, larvae, after 7 days, read-out: efficacy. The procedure: as §1, with “Solvent: 78.0” for “Solvent: 78”, “pekinensis)” for “pekinensis) infested by all stages of the green peach aphid (Myzus persicae)”, “desired concentration and, after drying, populated with larvae of the mustard beetle (Phaedon cochleariae).” for “desired concentration.”, “After 7” for “After 5”, “the beetle larvae” for “the aphids”, “no beetle larvae” for “no aphids”

Assay [6] has as its system Phaedon cochleariae. The experiment in a line: Phaedon cochleariae spray test (PHAECO), contrastive examples. The settings on record: 168 h, 7 dat, read-out: % efficacy. How it is done: Solvent: 78.0 parts by weight of acetone • • 1.5 parts by weight of dimethylformamide Emulsifier: alkylaryl polyglycol ether To produce an appropriate active ingredient formulation, 1 part by weight of active ingredient is dissolved with the stated parts by weight of solvent and made up with water containing an emulsifier concentration of 1000 ppm until the desired concentration is attained. For production of further test concentrations, the mixture is diluted with emulsifier-containing water. Discs of chinese cabbage leaves (Brassica pekinensis) are sprayed with an active ingredient formulation of the desired concentration and, after drying, populated with larvae of the mustard beetle (Phaedon cochleariae). After the desired time, the efficacy in % is determined. 100% means that all beetle larvae have been killed; 0% means that no beetle larvae have been killed.

The test system of assay [7] is Myzus persicae. The experiment in a line: Myzus persicae spray test (MYZUPE), contrastive examples. To be noted: 120 h, 5 dat, read-out: % efficacy. The procedure:
as §1, with “78.0” for “78”, “chinese” for “Chinese”, “the desired time,” for “5 days,”, “all” for “all the”

Assay [8] deals with Myzus persicae. The experiment in a line: Myzus persicae spray test (MYZUPE S), bell pepper plants. To be noted: 144 h, 6 dat, read-out: % efficacy. How it is done: Solvent: 14 parts by weight of dimethylformamide Emulsifier: alkylaryl polyglycol ether To produce an appropriate active ingredient formulation, 1 part by weight of active ingredient is dissolved with the stated parts by weight of solvent and made up with water containing an emulsifier concentration of 1000 ppm until the desired concentration is attained. For production of further test concentrations, the mixture is diluted with emulsifier-containing water. If addition of ammonium salts or/and penetrants is required, these are each added to the preparation solution in a concentration of 1000 ppm. Bell pepper plants (Capsicum annuum) severely infested by the green peach aphid (Myzus persicae) are treated by spraying with the active ingredient formulation in the desired concentration. After the desired time, the kill in % is determined. 100% means that all animals have been killed; 0% means that no animals have been killed.

A further assay concerns Nilaparvata lugens. The experiment in a line: Nilaparvata lugens spray test (NILALU). To be noted: 96 h, 4 dat, read-out: % efficacy. The procedure:
Solvent: 52.5 parts by weight of acetone • 7 parts by weight of dimethylformamide
Emulsifier: alkylaryl polyglycol ether
To produce an appropriate active ingredient formulation, 1 part by weight of active ingredient is dissolved with the stated parts by weight of solvent and made up with water containing an emulsifier concentration of 1000 ppm until the desired concentration is attained. For production of further test concentrations, the mixture is diluted with emulsifier-containing water. If addition of ammonium salts or/and penetrants is required, these are each added to the preparation solution in a concentration of 1000 ppm.
Rice plants (Oryza sativa) are sprayed with an active ingredient formulation of the desired concentration and then populated with larvae of the rice cicada (Nilaparvata lugens).
After the desired time, the efficacy in % is determined. 100% means that all rice cicadas have been killed; 0% means that no rice cicadas have been killed.

Another assay relates to Boophilus microplus. The experiment in a line: Boophilus microplus injection test. To be noted: application rate 20 μg/animal, laying of fertile eggs assessed after 7 days. How it is done:
Solvent: dimethyl sulfoxide To produce a suitable active ingredient formulation, 10 mg of active ingredient are mixed with 0.5 ml of solvent and the concentrate is diluted to the desired concentration with solvent. 1 μl of the active ingredient solution is injected into the abdomen of 5 engorged adult female cattle ticks (Boophilus microplus). The animals are transferred into dishes and kept in a climate-controlled room. Efficacy is assessed after 7 days by laying of fertile eggs. Eggs which are not visibly fertile are stored in a climate-controlled cabinet until the larvae hatch after about 42 days. An efficacy of 100% means that none of the ticks has laid any fertile eggs; 0% means that all the eggs are fertile.

As for `CCS(=O)(=O)c1ccc(NC(=O)NC)nc1-c1nc2cc(C(F)(F)F)nnc2n1C` [Example I-1, 1-{5-(ethylsulfonyl)-6-[7-methyl-3-(trifluoromethyl)-7H-imidazo[4,5-c]pyridazin-6-yl]pyridin-2-yl}-3-methylurea], the pest or weed control at 5 µg/cm2, 500 g/ha in the assay on Ctenocephalides felis [1] came to 100%. In addition, the pest or weed control at 100 ppm with Ctenocephalides felis [2] and in the assay with Lucilia cuprina was 100% each time. Also, the pest or weed control at 20 ppm with Meloidogyne incognita is 100%. Besides, the pest or weed control at 0.8 ppm with Myzus persicae [3] stood at 90%. For the same compound, the pest or weed control at 4 ppm in the assay on Myzus persicae [3] was 100%. For the same compound, the pest or weed control at 20 g/ha with Myzus persicae [4] was 90%. Moreover, the pest or weed control at 100 g/ha with Myzus persicae [4] and in the assay on Phaedon cochleariae [5] was 100% each time. The Emax at 4 g/ha with Phaedon cochleariae [6] (4 g/ha) amounted to 67%; in the assay with Myzus persicae [7], 90%. Moreover, the Emax at 20 g/ha in the assay with Phaedon cochleariae [6] turned out to be 83%. Besides, in the assay on Phaedon cochleariae [6], the Emax at 100 g/ha came out at 100%. Moreover, the Emax at 0.8 ppm with Myzus persicae [8] was found to be 70%.
`CCS(=O)(=O)c1ccc(NC(=O)N(C)C)nc1-c1nc2cc(C(F)(F)F)nnc2n1C` [Example I-2]: the pest or weed control at 5 µg/cm2, 500 g/ha with Ctenocephalides felis [1] worked out at 100%. Moreover, the pest or weed control at 100 ppm in the assay on Ctenocephalides felis [2] came out at 100%. Also, in the assay on Lucilia cuprina, the pest or weed control at 100 ppm came to 100%. The pest or weed control at 20 ppm in the assay on Meloidogyne incognita is 100%. Also, in the assay with Myzus persicae [3], the pest or weed control at 0.8 ppm amounted to 100% and the pest or weed control at 4 ppm is 100%. In addition, in the assay with Myzus persicae [4], the pest or weed control at 20 g/ha is 100% and the pest or weed control at 100 g/ha came out at 90%. In addition, the pest or weed control at 100 g/ha with Phaedon cochleariae [5] amounted to 100%. For the same compound, in the assay on Phaedon cochleariae [6], the Emax at 20 g/ha came out at 83% and the Emax at 100 g/ha is 100%. Moreover, the Emax at 0.8 ppm in the assay with Myzus persicae [8] came out at 90%.
As to `CCS(=O)(=O)c1ccc(N(C)C(=O)NC)nc1-c1nc2cc(C(F)(F)F)nnc2n1C` [Example I-3], the pest or weed control at 5 µg/cm2, 500 g/ha with Ctenocephalides felis [1] was determined as 100%. Also, the pest or weed control at 100 ppm in the assay with Ctenocephalides felis [2] was found to be 100%. For the same compound, in the assay on Lucilia cuprina, the pest or weed control at 100 ppm was determined as 90%. In addition, the pest or weed control at 20 ppm in the assay on Meloidogyne incognita worked out at 100%. In addition, in the assay with Myzus persicae [3], the pest or weed control at 0.8 ppm was found to be 100% and the pest or weed control at 4 ppm was 100%. Further, the pest or weed control at 20 g/ha with Myzus persicae [4] turned out to be 100%. Further, the pest or weed control at 100 g/ha in the assay with Phaedon cochleariae [5] amounted to 100%. For the same compound, the Emax at 4 g/ha in the assay with Nilaparvata lugens was determined as 70%.
Take `CNC(=O)N(C)c1ccc(S(C)(=O)=O)c(-c2nc3cc(C(F)(F)F)nnc3n2C)n1` [Example I-6]: in the assay with Boophilus microplus, the efficacy is reported as 80%. In addition, the pest or weed control at 100 ppm with Ctenocephalides felis [2] is 100%. Besides, in the assay with Myzus persicae [3], the pest or weed control at 0.8 ppm came to 100% and the pest or weed control at 4 ppm was found to be 100%. Moreover, the pest or weed control at 100 g/ha with Myzus persicae [4] worked out at 90%. Further, the Emax at 0.8 ppm in the assay with Myzus persicae [8] worked out at 85%.
